{
  "source": "patent US11191273B2",
  "about": "“Methods of making pyranopyrans such as pyranopyran nitrile and methods of using pyranopyrans such as pyranopyran nitrile” (The United States of America, as Represented by the …, priority 2018, dated 2021)",
  "origin": "cited, not measured here",
  "tested_on": "cork oak (Quercus suber) cuttings",
  "settings": "literature; cited from earlier work",
  "data": [
    {"smiles": "C[C@H](O)[C@H]1C=C[C@@H]2OC(=O)C=C[C@@H]2O1", "note": "[Diplopyrone, 6-[(1S)-1-hydroxyethyl]-2,4a(S),6(R),8a(S)-tetrahydropyrano-[3,2-b]-pyran-2-one]", "values": [
      {"measurement": "phytotoxic effect", "value": "causes necrosis and wilting"}
    ]}
  ]
}
